In patent publication US20210301349A1, “COMPOSITIONS AND METHODS FOR TREATING A TUMOR SUPPRESSOR DEFICIENT CANCER” (BETH ISRAEL DEACONESS MEDICAL CENTER, INC., priority 2016, published 2021):
Values joined by “and” are separate entries in the source; they are usually repeats but may differ in a detail not shown here. Equal entries are not always repeated. “Also recorded” adds a separate entry of the source.

Columns and labels:
Assay type in all cases: in vivo, mouse
[1] = tested on: NFκB signaling; assay: Western blot and expression analysis of Pten^pc−/−; Zbtb7a^pc−/− tumors treated with CXCR2 antagonist; settings: versus vehicle
Description: (§1) Mice were allocated at random to experimental groups and studies were performed in an unblended manner. For treatment with the CXCR2 antagonist, SB225002 (Cayman Chemical #13336) was dissolved in DMSO (10 mg/ml) and diluted in vehicle (0.9% NaCl, 0.3% Tween 80) for in vivo administration. Mice (4 months of age) were treated daily for 10 days by intraperitoneal injection (5 mg/kg) and prostate tumor tissue (anterior lobes) was subjected to Flow Cytometry and histological analysis. For MRI analysis, mice (4 months of age) were treated daily for 21 days (Pten^pc−/−; Zbtb7a^pc−/−), for 14 days (Pten^pc−/−; Trp53^pc−/−) or for 14 days (Pten^pc−/−; Pml^pc−/−) by intraperitoneal injection (5 mg/kg). […] Tumor volume quantification was performed by using VivoQuant and Image J software. […]
(§2) For western blotting, cell lysates were prepared by homogenizing tumor tissue with NP40 Buffer (Boston Bioproducts) supplemented with protease (Roche) and HALT phosphatase inhibitor cocktails (Thermo Scientific) and subsequently subjected to SDS-Gel separation (Invitrogen) and western blotting. […] Western blots were quantified using Image J software. […] Embedding and hematoxylin and eosin staining of sections were performed by the Histology Core at BIDMC and analyzed by a pathologist. […]

[2] = tested on: Pten^pc−/−; Trp53^pc−/− tumors (anterior prostate lobes); assay: Histological analysis of treated Pten^pc−/−; Trp53^pc−/− tumors; settings: Trp53^pc−/− mice, 10 days of i.p. treatment, versus vehicle
Description: as §1, §2

[3] = tested on: Pten^pc−/−; Zbtb7a^pc−/− prostate tumors; assay: Tumor growth by MRI in Pten^pc−/−; Zbtb7a^pc−/− mice under drug or antibody treatment; settings: for tumor volume: Pten-Zbtb7a, individual mice
Description: Mice were allocated at random to experimental groups and studies were performed in an unblended manner. For treatment with the CXCR2 antagonist, SB225002 (Cayman Chemical #13336) was dissolved in DMSO (10 mg/ml) and diluted in vehicle (0.9% NaCl, 0.3% Tween 80) for in vivo administration. Mice (4 months of age) were treated daily for 10 days by intraperitoneal injection (5 mg/kg) and prostate tumor tissue (anterior lobes) was subjected to Flow Cytometry and histological analysis. For MRI analysis, mice (4 months of age) were treated daily for 21 days (Pten^pc−/−; Zbtb7a^pc−/−), for 14 days (Pten^pc−/−; Trp53^pc−/−) or for 14 days (Pten^pc−/−; Pml^pc−/−) by intraperitoneal injection (5 mg/kg). For depletion of Gr-1+/CD11b+ cells, Ly6G-depletion antibody (1A8, BioXcell) and control Rat IgG2a antibody (BioXcell) were diluted in phosphate-buffered saline (PBS) for in vivo administration. Mice (4 months of age) were treated every other day for 10 days by intraperitoneal injection (200-300 μg/mouse). InVivoMAb anti-mouse Ly6G/Ly6C (Gr-1) antibody, clone RB6-8C5 (BE0075, BioXcell), and control Rat IgG2b antibody (BE0090, BioXcell) were diluted in PBS and Pten^pc−/−; Trp53^pc−/− mice were treated every other day for 14 days by intraperitoneal injection (200 μg/mouse). For neutralization of CXCL5, anti-Mouse CXCL5 antibody (Leinco Technologies) and control Rat IgG2a antibody (BioXcell) were diluted in PBS and injected every other day for 21 days by intraperitoneal injection (20 μg/mouse). Tumor volume quantification was performed by using VivoQuant and Image J software. All mouse prostate MRI imaging analysis was performed at Small Animal Imaging Core at BIDMC and acquired on an ASPECT Model M2 1T tabletop scanner.

## O=C(Nc1ccc([N+](=O)[O-])cc1O)Nc1ccccc1Br [SB225002]
[1]; Pten^pc−/−, Zbtb7a^pc−/− prostate tumors
  expression of CXCL5: elevated expression of CXCL5
[1]; western blot of Pten^pc−/−, Zbtb7a^pc−/− tumors
  IκBα protein level (normalized with β-actin): increased IκBα protein levels
[2]
  tumor burden by histological analysis: reduced tumor burden
[2]; listed as CXCR2 inhibitor
  tumor burden by histological analysis: significantly diminished tumor involvement
[3]; CXCR2i (SB225002 5 mg/kg i.p. daily), row 0 = day 0 baseline, MRI
  tumor volume: 54.248 mm3 and 79.3701 mm3 and 59.2774 mm3
[3]; CXCR2i, row 1 (weekly MRI)
  tumor volume: 44.3115 mm3 and 67.9688 mm3 and 65.0879 mm3
[3]; CXCR2i, row 2 (weekly MRI)
  tumor volume: 41.1865 mm3 and 68.9697 mm3 and 58.6914 mm3
[3]; CXCR2i, row 3 (weekly MRI, 3 weeks on treatment)
  tumor volume: 42.1142 mm3 and 71.3379 mm3 and 66.0889 mm3
[3]; Pten^pc−/−, Zbtb7a^pc−/− mice, versus vehicle or control IgG
  tumor growth: significantly suppressed the tumor growth; also recorded: significant inhibition of tumor growth
